According to US20170152285A1, “EXTRACTING METHOD OF KUGUACIN, PHARMACEUTICAL COMPOSITION COMPRISING THE KUGUACIN AND USE THEREOF” (priority 2015, published 2017):

How the values were obtained:
IL-8 = assay: Anti-inflammatory activity assay, IL-8 ELISA, THP-1 co-cultured with P. gingivalis; format: cell-based, Human; settings: for inhibiting the expression of IL-8 induced by P. gingivalis: 1 μM to 5 μM, dose-dependent
Method: (§1) P. gingivalis (ATCC 33277/BCRC 14417) purchased from Bioresource Collection and Research Center of Food Industry Research and Development Institute in Hsinchu. P. gingivalis was incubated with TSB medium in an anaerobic incubator at 37° C. in an atmosphere of 86% of N2, 10% of CO2 and 4% of H2. The TSB medium comprises 15 g of Tryptic Soy broth (Becton, Dicksinson and company, U.S.A.), 2.5 g of yeast extract, 0.5 mL of Hemin and 0.1 mL of Vitamin K dissolved in 500 mL of deionized H2O.
(§2) THP-1 cell line (2×10^6 cells/mL) cultured by the method described in Example 3 was placed into a 96-well plate, and then 100 μL of RPMI medium without P. gingivalis was added or 0.1% dimethyl sulfoxide (DMSO) containing P. gingivalis with its multiplicity of infection (MOI) of 10 was added as negative controls. Different concentrations of samples from Examples 1 and 2 were added or luteolin (10 μM) was added as positive control. After co-culturing in an incubator at 37° C. in 5% of CO2 for 24 hours, the supernatants were collected. Then, the levels of IL-6 and IL-8 were analyzed by commercial ELISA kits for IL-6 and IL-8 (Invitrogen).
(§3) The term “MOI” is multiplicity of infection which means the number of the bacteria infecting each cell (the number of bacteria/the number of cells). For example, MOI=1 refers to every cell was infected by one bacterial colony.

IL-6 [1] = assay: Anti-inflammatory activity assay, IL-6 ELISA, THP-1 co-cultured with P. gingivalis; format: cell-based, Human; settings: for inhibiting the expression of IL-6 induced by P. gingivalis: 1 μM to 5 μM, dose-dependent
Method: as §1, §2, §3

ERK = assay: Western blot of phosphorylated ERK in THP-1 induced by P. gingivalis; format: cell-based, Human; settings: 10 μM and 20 μM, induced by P. gingivalis for 30 mins
Method: (§4) To analyze the effect of the M. charantia extract on phosphorylation of MAPK proteins, THP-1 cell line cultured by the method described in Example 3 (2×10^6 cells/mL) was inoculated in 6-cm petridishes. Every 200 μL of cell culture was added 800 μL of fresh media containing DMSO with P. gingivalis (MOI=10), different concentrations of samples from Examples 1 and 2 or luteolin ([…]) and then co-cultured in a incubator at 37° C. in 5% of CO2 for 30 mins. Next, the cells were collected and centrifuged to remove the supernatant. After adding phosphate buffer solution (PBS), the collected cells were shook and washed repeatedly for 3 times. Then 100 μL of 1× lysis buffer was added in. The mixture was centrifuged at 12,000 rpm and 4° C. for 15 mins, and the supernatant was collected. The protein was quantified to the identical concentration. After protein electrophoresis was conducted, Western blot was conducted to analyze the level of phosphorylated ERK, JNK and p38 (i.e. p-ERK, p-JNK and p-p38).

IL-6 [2] = assay: Periodontitis mouse model, IL-6 mRNA in gum tissue; format: in vivo, C57BL/6 mice; settings: 5 μg injected into gum tissue, day 14
Method: (§5) To assess the effect of kuguacin on anti-inflammation in vivo, 6-week old C57BL/6 male mice were used in the present embodiment. The mice were purchased from Laboratory Animal Center of National Taiwan University, and fed with commercial chow diet and drinking water. After free access of food for 7 days, the mice were grouped for experiments, five animals for each group.
(§6) The concentration of P. gingivalis was adjusted to 1×10^9 CFU/mL by steriled PBS, then centrifuged at 10,000 rpm for 5 min. After removing the supernatant, the pellet was heated in water bath at 80° C. for 30 mins.
(§7) According to the method provided in the reference by Molon et al. to establish animal experiment model. Heat-killed P. gingivalis was injected into the gum tissue of C57BL/6 mice to cause inflammation. The mice were anesthetized by ethylether. Samples and bacteria solution were withdrawn using 0.3-mL insulin syringe needle. 10 μL of bacteria and samples were injected into the gum tissue of the mice. If blisters appeared, the injection was successful. […]
(§8) After sacrificing the mice at the 14th day of the experiment, the gums of lower jaw of the mice were sampled and the gene expressions of COX-2, IL-6 and TNF-α therein were analyzed.

TNF-α = assay: Periodontitis mouse model, TNF-α mRNA in gum tissue; format: in vivo, C57BL/6 mice; settings: 5 μg injected into gum tissue, day 14
Method: as §5, §6, §7, §8

p-ERK, p-JNK and p-p38 = assay: Western blot of phosphorylated MAPK proteins in THP-1 induced by P. gingivalis; format: cell-based, Human; settings: 1 μM to 5 μM, induced by P. gingivalis for 30 mins, dose-dependent
Method: as §4

iNOS = assay: Periodontitis mouse model, iNOS mRNA in gum tissue; format: in vivo, C57BL/6 mice; settings: injected into gum tissue with P. gingivalis, day 14
COX-2 = assay: Periodontitis mouse model, COX-2 mRNA in gum tissue; format: in vivo, C57BL/6 mice; settings: 5 μg injected into gum tissue, day 14
Method: as §5, §6, §7, §8

| SMILES | inhibiting the expression of IL-8 by THP-1 cell line (IL-8; 5 μM to 20 μM) | inhibiting the expression of IL-6 by THP-1 cell line (IL-6 [1]; 5 μM to 20 μM) | inhibiting the phosphorylation of ERK (ERK) | inhibiting the expression of IL-8 induced by P. gingivalis (IL-8) | mRNA expression of IL-6 in gum tissue, compared to group induced by P. gingivalis as 100% (IL-6 [2]) | inhibiting the expression of IL-6 induced by P. gingivalis (IL-6 [1]) | mRNA expression of TNF-α in gum tissue, compared to group induced by P. gingivalis as 100% (TNF-α) | phosphorylation of the signal transduction proteins (p-ERK, p-JNK, p-p38) in THP-1 cells (p-ERK, p-JNK and p-p38) | mRNA expression of iNOS in gum tissue (iNOS) | mRNA expression of COX-2 in gum tissue, compared to group induced by P. gingivalis as 100% (COX-2) |
| --- | --- | --- | --- | --- | --- | --- | --- | --- | --- | --- |
| C=C(C)/C=C/C[C@@H](C)[C@H]1CC[C@@]2(C)[C@@H]3C=C[C@@]45O[C@@H](O)[C@]3(CC[C@]12C)[C@@H]4CC[C@H](O)C5(C)C [fraction 532, 5β,19-epoxycucurbita-6,23(E),25(26)-triene-3β,19(R)-diol] | effective on inhibiting | effective on inhibiting | effective in inhibiting | – | – | – | – | – | – | – |
| CC(CC=CC(C)(C)O)C1CCC2(C)C3C=CC45OC(O)C3(CCC12C)C4CCC(O)C5(C)C (centres unmarked) [fraction 5211, 5,19-epoxycucurbita-6,23-diene-3,19,25-triol] | – | – | – | effective on inhibiting | 34% | effective on inhibiting | 40% | reduced | increase | 31% |
| C[C@H](C/C=C/C(C)(C)O)[C@H]1CC[C@@]2(C)[C@@H]3[C@@H](O)C=C4[C@@H](CC[C@H](O)C4(C)C)[C@]3(C=O)CC[C@]12C [fraction 5212, 3,7,25-trihydroxycucurbita-5,23-dien-19-al] | – | – | – | effective on inhibiting | 67% | effective on inhibiting | 67% | reduced | increase | 49% |
